# Results: publication PMC3111189, “Bioactive Indole Derivatives from the South Pacific Marine Sponges Rhopaloeides odorabile and Hyrtios sp” (Marine Drugs, 2011)
# Several values for one entry are separate records, joined by “and”; a condition that tells them apart may be missing. Equal entries are not always repeated. Where two headings read alike, the source gives them in different places.
# Legend:
# [1] = Quantitative ORAC assay (fluorescein/AAPH); settings: for ORAC FL relative ORAC value: fluorescein (FL) + AAPH, n = 3, Trolox = 1; for fold less active than Trolox: ORAC assay, compared with Trolox; for concentration displaying FL decay curve similar to Trolox: fluorescein fluorescence decay induced by AAPH, Figure 3
# [2] = target: bee venom PLA2 (Apis mellifera, UniProt P00630); test: biochemical
# Chain of bee venom PLA2 (P00630 34-167 limits assumed): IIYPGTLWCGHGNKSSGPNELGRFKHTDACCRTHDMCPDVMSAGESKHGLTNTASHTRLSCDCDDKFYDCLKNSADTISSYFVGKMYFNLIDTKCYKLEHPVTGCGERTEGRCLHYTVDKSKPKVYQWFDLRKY
# [3] = tested on: KB cells; test: Cytotoxicity assay (MTS) on KB cells
# Procedure: The human KB cell line was obtained from ECACC (Salisbury, UK) and grown in D-MEM medium supplemented with 10% fetal calf serum (Invitrogen), in the presence of penicillin, streptomycin and fungizone in a 75 cm^2 flask under 5% CO2. Cells were plated in 96-well tissue culture microplates at a density of 650 cells/well in 200 μL medium and treated 24 hrs later with compounds dissolved in DMSO using a Biomek 3000 automate (Beckman-Coulter). Controls received the same volume of DMSO (1% final volume).
SMILES,ORAC FL relative ORAC value [1],"IC50 ([2]; n = 2, read-out: PLA2 IC50)",other results
"Cc1c(C)c2c(c(C)c1O)CCC(C)(C(=O)O)O2 (centres unmarked) [Trolox, reference compound]",1 relative Trolox equivalent,–,–
"CNCCc1c[nH]c2cc(Br)c(Br)cc12 [Compound 6, N-Methyl-5,6-dibromotryptamine]",–,330 ± 30 µM,–
"C[C@H]1CC[C@H]2C(C)(C)CCC[C@]23Oc2ccc(O)cc2C[C@]13C [Compound 4, Aureol]",0.29 relative Trolox equivalent and 0.29 ± 0.03 relative Trolox equivalent,460 ± 20 µM,"IC50 ([3]; Homo sapiens, KB, 72 h, read-out: KB cells IC50 (50% inhibition of cell proliferation)): 5 µM; fold less active than Trolox [1]: 3 fold; concentration displaying FL decay curve similar to Trolox [1]: 15.5 µM"
"COC(=O)C(=O)c1c[nH]c2ccccc12 [Compound 2, (1H-Indol-3-yl)oxoacetic acid methyl ester]",–,1110 ± 330 µM,–
"CN(C)CCc1c[nH]c2cc(Br)c(Br)cc12 [Compound 7, N,N-Dimethyl-5,6-dibromotryptamine]",0.06 ± 0.01 relative Trolox equivalent,770 ± 50 µM,–
"O=Cc1c[nH]c2cc(Br)ccc12 [Compound 3, 6-Bromoindole-3-carbaldehyde]",–,1270 ± 60 µM,–
"C[N+](C)(C)[C@@H](Cc1c[nH]c2cc(Br)c(Br)cc12)C(=O)[O-] [Compound 9, 5,6-Dibromo-L-hypaphorine]",0.22 relative Trolox equivalent and 0.22 ± 0.04 relative Trolox equivalent,200 ± 10 µM,"cytotoxicity towards KB cells ([3]; at 10^−4 M, human KB cell line): did not show any cytotoxic activity; fold less active than Trolox [1]: 4 fold; concentration displaying FL decay curve similar to Trolox [1]: 24.2 µM"
"CN[C@@H](Cc1c[nH]c2cc(Br)c(Br)cc12)C(=O)O [Compound 8, 5,6-Dibromoabrine]",0.07 ± 0.01 relative Trolox equivalent,300 ± 10 µM,–
"NCCc1c[nH]c2cc(Br)c(Br)cc12 [Compound 5, 5,6-Dibromotryptamine]",–,620 ± 10 µM,–
"NC(=O)C(=O)c1c[nH]c2ccccc12 [Compound 1, (1H-Indol-3-yl)oxoacetamide]",–,–,IC50 [2]: 1170 ± 50 µM
